Reference: US7138361B2, “Herbicidal heterocycles” (E. I. du Pont de Nemours and Company, priority 2000, dated 2006)

Tests used:
Assay in all cases: Test C preemergence
Type in all cases: in vivo
Nightshade [1] = settings: Rate 500 g/ha, visual evaluation after 12 to 14 days
[2] = tested on: Surinam grass (Brachiaria decumbens); settings: for Plant response rating, Surinam grass: scale 0 to 100, 0 no effect, 100 complete control; for Plant response rating (0 to 100), Surinam grass: visual evaluation after 12 to 14 days
From the text: (§1) Seeds of plant species selected from bermudagrass (Cynodon dactylon), Surinam grass (Brachiaria decumbens), cocklebur (Xanthium strumarium), corn (Zea mays), crabgrass (Digitaria sanguinalis), woolly cupgrass (Eriochloa villosa), giant foxtail (Setaria faberii), goosegrass (Eleusine indica), johnsongrass (Sorghum halepense), kochia (Kochia scoparia), lambsquarters (Chenopodium album), morningglory (Ipomoea hederacea), yellow nutsedge (Cyperus esculentus), pigweed (Amaranthus retroflexus), common ragweed (Ambrosia elatior), soybean (Glycine max) and velvetleaf (Abutilon theophrasti) were planted and treated preemergence with test chemicals formulated in a non-phytotoxic solvent mixture which included a surfactant.
(§2) At the same time, plants selected from these crop and weed species and also winter barley (Hordeum vulgare), blackgrass (Alopecurus myosuroides), canary grass (Phalaris minor), chickweed (Stellaria media), downy brome (Bromus tectorum), green foxtail (Setaria viridis), Italian ryegrass (Lolium multiflorum), wheat (Triticum aestivum), wild oat (Avena fatua) and windgrass (Apera spica-venti) were treated with postemergence applications of some of the test chemicals formulated in the same manner. Plants ranged in height from 2 to 18 cm (1- to 4-leaf stage) for postemergence treatments. Plant species in the flooded paddy test consisted of rice (Oryza saliva), smallflower flatsedge (Cyperus difformis), duck salad (Heteranthera limosa) and barnyardgrass (Echinochloa crus-galli) grown to the 2-leaf stage for testing. Treated plants and controls were maintained in a greenhouse for 12 to 14 days, after which time all species were compared to controls and visually evaluated. Plant response ratings, summarized in Table C, are based on a scale of 0 to 100 where 0 is no effect and 100 is complete control. A dash (-) response means no test result.

soybean (Glycine max) = settings: preemergence; for Plant response rating, Soybean: scale 0 to 100, 0 no effect, 100 complete control
From the text: as §1, §2

[3] = tested on: goosegrass (Eleusine indica); settings: for Plant response rating, Goosegrass: scale 0 to 100, 0 no effect, 100 complete control; for Plant response rating (0 to 100), Goosegrass: visual evaluation after 12 to 14 days
From the text: as §1, §2

[4] = tested on: pigweed (Amaranthus retroflexus); settings: preemergence; for Plant response rating, Pigweed: scale 0 to 100, 0 no effect, 100 complete control
From the text: as §1, §2

[5] = tested on: giant foxtail (Setaria faberii); settings: for Plant response rating, Foxtail, Giant: scale 0 to 100, 0 no effect, 100 complete control; for Plant response rating (0 to 100), Foxtail, Giant: visual evaluation after 12 to 14 days
From the text: as §1, §2

[6] = tested on: yellow nutsedge (Cyperus esculentus); settings: for Plant response rating, Nutsedge: scale 0 to 100, 0 no effect, 100 complete control
From the text: as §1, §2

[7] = tested on: johnsongrass (Sorghum halepense); settings: for Plant response rating, Johnsongrass: scale 0 to 100, 0 no effect, 100 complete control; for Plant response rating (0 to 100), Johnsongrass: visual evaluation after 12 to 14 days
From the text: as §1, §2

[8] = tested on: crabgrass (Digitaria sanguinalis); settings: for Plant response rating, Crabgrass: scale 0 to 100, 0 no effect, 100 complete control; for Plant response rating (0 to 100), Crabgrass: visual evaluation after 12 to 14 days
From the text: as §1, §2

[9] = tested on: velvetleaf (Abutilon theophrasti); settings: preemergence; for Plant response rating, Velvetleaf: scale 0 to 100, 0 no effect, 100 complete control
From the text: as §1, §2

Nightshade [10] = settings: scale 0 to 100, 0 no effect, 100 complete control
From the text: as §1, §2

corn (Zea mays) = settings: for Plant response rating, Corn: scale 0 to 100, 0 no effect, 100 complete control; for Plant response rating (0 to 100), Corn: visual evaluation after 12 to 14 days
From the text: as §1, §2

[11] = tested on: cocklebur (Xanthium strumarium); settings: for Plant response rating, Cocklebur: scale 0 to 100, 0 no effect, 100 complete control; for Plant response rating (0 to 100), Cocklebur: visual evaluation after 12 to 14 days
From the text: as §1, §2

kochia (Kochia scoparia) = settings: for Plant response rating, Kochia: scale 0 to 100, 0 no effect, 100 complete control; for Plant response rating (0 to 100), Kochia: visual evaluation after 12 to 14 days
From the text: as §1, §2

[12] = tested on: common ragweed (Ambrosia elatior); settings: preemergence; for Plant response rating, Ragweed, Common: scale 0 to 100, 0 no effect, 100 complete control
From the text: as §1, §2

[13] = tested on: woolly cupgrass (Eriochloa villosa); settings: for Plant response rating, Cupgrass, Woolly: scale 0 to 100, 0 no effect, 100 complete control; for Plant response rating (0 to 100), Cupgrass, Woolly: visual evaluation after 12 to 14 days
From the text: as §1, §2

[14] = tested on: morningglory (Ipomoea hederacea); settings: for Plant response rating, Morningglory: scale 0 to 100, 0 no effect, 100 complete control
From the text: as §1, §2

[15] = tested on: bermudagrass (Cynodon dactylon); settings: for Plant response rating, Bermudagrass: scale 0 to 100, 0 no effect, 100 complete control; for Plant response rating (0 to 100 where 0 is no effect and 100 is complete control), Bermudagrass: visual evaluation after 12 to 14 days
From the text: as §1, §2

[16] = Rate 500 g/ha, visual evaluation after 12 to 14 days
[17] = preemergence, Rate 500 g/ha, visual evaluation after 12 to 14 days

With `CC1(c2ccn(C3SCN(c4cccc(OC(F)(F)F)c4)C3=O)n2)CC1` (stereo not shown) [Compound 63] as the compound, how does the “Plant response rating (0 to 100), Nightshade” value (Nightshade [1]) read?
Its value is 100.

And the “Plant response rating, Surinam grass” value ([2]; Rate 62 g/ha)?
Its value is 20.

And the “Plant response rating (0 to 100), Surinam grass” value ([2]; preemergence, Rate 250 g/ha)?
Its value is 70.

And the “Plant response rating (0 to 100), Surinam grass” value ([2]; preemergence, Rate 500 g/ha)?
The value was 100.

What about the “Plant response rating, Surinam grass” value ([2]; preemergence, Rate 125 g/ha) of the same compound?
The value was 20.

What about the “Plant response rating (0 to 100), Soybean” value (soybean (Glycine max); [16]) of the same compound?
The value was 40.

What about the “Plant response rating, Soybean” value (soybean (Glycine max); Rate 125 g/ha) of the same compound?
Its value is 0.

And the “Plant response rating, Soybean” value (soybean (Glycine max); Rate 250 g/ha)?
Its value is 0.

What about the “Plant response rating, Goosegrass” value ([3]; Rate 62 g/ha) of the same compound?
Its value is 100.

And the “Plant response rating (0 to 100), Goosegrass” value ([3]; preemergence, Rate 250 g/ha)?
The value was 100.

And the “Plant response rating (0 to 100), Goosegrass” value ([3]; preemergence, Rate 500 g/ha)?
Its value is 100.

And the “Plant response rating, Goosegrass” value ([3]; preemergence, Rate 125 g/ha)?
The value was 100.

What about the “Plant response rating (0 to 100), Pigweed” value [4, 16] of the same compound?
The value was 100.

What about the “Plant response rating, Pigweed” value ([4]; Rate 125 g/ha) of the same compound?
The value was 100.

And the “Plant response rating, Pigweed” value ([4]; Rate 250 g/ha)?
The value was 100.

And the “Plant response rating, Foxtail, Giant” value ([5]; Rate 62 g/ha)?
The value was 20.

What about the “Plant response rating (0 to 100), Foxtail, Giant” value ([5]; preemergence, Rate 250 g/ha) of the same compound?
Its value is 100.

And the “Plant response rating (0 to 100), Foxtail, Giant” value ([5]; preemergence, Rate 500 g/ha)?
The value was 100.

And the “Plant response rating, Foxtail, Giant” value ([5]; preemergence, Rate 125 g/ha)?
Its value is 90.

And the “Plant response rating, Nutsedge” value ([6]; Rate 62 g/ha)?
Its value is 0.

What about the “Plant response rating (0 to 100), Nutsedge” value [6, 17] of the same compound?
The value was 100.

What about the “Plant response rating, Nutsedge” value ([6]; preemergence, Rate 125 g/ha) of the same compound?
Its value is 0.

And the “Plant response rating, Nutsedge” value ([6]; preemergence, Rate 250 g/ha)?
The value was 20.

What about the “Plant response rating, Johnsongrass” value ([7]; Rate 62 g/ha) of the same compound?
The value was 0.

What about the “Plant response rating (0 to 100), Johnsongrass” value ([7]; preemergence, Rate 250 g/ha) of the same compound?
The value was 100.

And the “Plant response rating (0 to 100), Johnsongrass” value ([7]; preemergence, Rate 500 g/ha)?
Its value is 100.

What about the “Plant response rating, Johnsongrass” value ([7]; preemergence, Rate 125 g/ha) of the same compound?
The value was 60.

What about the “Plant response rating, Crabgrass” value ([8]; Rate 62 g/ha) of the same compound?
Its value is 100.

What about the “Plant response rating (0 to 100), Crabgrass” value ([8]; preemergence, Rate 250 g/ha) of the same compound?
The value was 100.

What about the “Plant response rating (0 to 100), Crabgrass” value ([8]; preemergence, Rate 500 g/ha) of the same compound?
Its value is 100.

What about the “Plant response rating, Crabgrass” value ([8]; preemergence, Rate 125 g/ha) of the same compound?
Its value is 100.

And the “Plant response rating (0 to 100), Velvetleaf” value [9, 16]?
Its value is 50.

What about the “Plant response rating, Velvetleaf” value ([9]; Rate 125 g/ha) of the same compound?
The value was 0.

And the “Plant response rating, Velvetleaf” value ([9]; Rate 250 g/ha)?
Its value is 30.

What about the “Plant response rating, Nightshade” value (Nightshade [10]; Rate 62 g/ha) of the same compound?
The value was 30.

And the “Plant response rating, Nightshade” value (Nightshade [10]; Rate 125 g/ha)?
The value was 60.

What about the “Plant response rating, Nightshade” value (Nightshade [10]; Rate 250 g/ha) of the same compound?
The value was 60.

What about the “Plant response rating, Corn” value (corn (Zea mays); Rate 62 g/ha) of the same compound?
The value was 0.

What about the “Plant response rating (0 to 100), Corn” value (corn (Zea mays); preemergence, Rate 250 g/ha) of the same compound?
Its value is 20.

And the “Plant response rating (0 to 100), Corn” value (corn (Zea mays); preemergence, Rate 500 g/ha)?
The value was 40.

What about the “Plant response rating, Corn” value (corn (Zea mays); preemergence, Rate 125 g/ha) of the same compound?
The value was 0.

What about the “Plant response rating, Cocklebur” value ([11]; Rate 62 g/ha) of the same compound?
Its value is 0.

And the “Plant response rating (0 to 100), Cocklebur” value ([11]; preemergence, Rate 250 g/ha)?
The value was 30.

And the “Plant response rating (0 to 100), Cocklebur” value ([11]; preemergence, Rate 500 g/ha)?
Its value is 30.

What about the “Plant response rating, Cocklebur” value ([11]; preemergence, Rate 125 g/ha) of the same compound?
The value was 0.

What about the “Plant response rating, Kochia” value (kochia (Kochia scoparia); Rate 62 g/ha) of the same compound?
Its value is 70.

What about the “Plant response rating (0 to 100), Kochia” value (kochia (Kochia scoparia); preemergence, Rate 250 g/ha) of the same compound?
The value was 100.

And the “Plant response rating (0 to 100), Kochia” value (kochia (Kochia scoparia); preemergence, Rate 500 g/ha)?
Its value is 100.

What about the “Plant response rating, Kochia” value (kochia (Kochia scoparia); preemergence, Rate 125 g/ha) of the same compound?
Its value is 100.

What about the “Plant response rating (0 to 100), Ragweed, Common” value [12, 16] of the same compound?
Its value is 90.

And the “Plant response rating, Ragweed, Common” value ([12]; Rate 125 g/ha)?
Its value is 50.

And the “Plant response rating, Ragweed, Common” value ([12]; Rate 250 g/ha)?
The value was 50.

What about the “Plant response rating, Cupgrass, Woolly” value ([13]; Rate 62 g/ha) of the same compound?
The value was 20.

What about the “Plant response rating (0 to 100), Cupgrass, Woolly” value ([13]; preemergence, Rate 250 g/ha) of the same compound?
Its value is 60.

What about the “Plant response rating (0 to 100), Cupgrass, Woolly” value ([13]; preemergence, Rate 500 g/ha) of the same compound?
Its value is 100.

And the “Plant response rating, Cupgrass, Woolly” value ([13]; preemergence, Rate 125 g/ha)?
The value was 60.

And the “Plant response rating, Morningglory” value ([14]; Rate 62 g/ha)?
The value was 0.

And the “Plant response rating (0 to 100), Morningglory” value [14, 17]?
Its value is 40.

What about the “Plant response rating, Morningglory” value ([14]; preemergence, Rate 125 g/ha) of the same compound?
The value was 20.

And the “Plant response rating, Morningglory” value ([14]; preemergence, Rate 250 g/ha)?
The value was 30.

And the “Plant response rating, Bermudagrass” value ([15]; Rate 62 g/ha)?
The value was 100.

What about the “Plant response rating (0 to 100 where 0 is no effect and 100 is complete control), Bermudagrass” value ([15]; preemergence, Rate 250 g/ha) of the same compound?
Its value is 100.

And the “Plant response rating (0 to 100 where 0 is no effect and 100 is complete control), Bermudagrass” value ([15]; preemergence, Rate 500 g/ha)?
The value was 100.

And the “Plant response rating, Bermudagrass” value ([15]; preemergence, Rate 125 g/ha)?
Its value is 100.
